Experimental data from PubChem BioAssay AID256 (DTP/NCI, 2004).
Several values for one entry are separate records, joined by “and”; a condition that tells them apart may be missing. Equal values may be shown once. Toxic doses and inconclusive results are not listed. Rule for the calls: active = survival T/C of 150% or more; inactive = T/C below 125% in these data.

Tested on: CD2F1 mice, L1210 leukemia ip, survival T/C
Assay: NCI In Vivo Anticancer Drug Screen. Data for tumor model L1210 Leukemia (intraperitoneal) in CD2F1 (CDF1) mice
Conditions: higher = longer survival
Summary of the method: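 Activity against a transplanted murine tumor was judged by comparing the compound group with a vehicle group. The outcome in the treated animals was divided by that in the controls.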

[1] = endpoint: mean survival time, dose: 100.0 mg/kg/injection, schedule: Q04DX003 (ip), vehicle: saline with Tween-80
[2] = endpoint: mean survival time, dose: 200.0 mg/kg/injection, schedule: Q04DX003 (ip), vehicle: saline with Tween-80
[3] = endpoint: mean survival time, dose: 400.0 mg/kg/injection, schedule: Q04DX003 (ip), vehicle: saline with Tween-80
[4] = endpoint: mean survival time, dose: 100.0 mg/kg/injection, schedule: Q01DX009 (ip), vehicle: saline with Tween-80
[5] = endpoint: mean survival time, dose: 200.0 mg/kg/injection, schedule: Q01DX009 (ip), vehicle: saline with Tween-80
[6] = endpoint: mean survival time, dose: 400.0 mg/kg/injection, schedule: Q01DX009 (ip), vehicle: saline with Tween-80

Measured: T/C

c1ccc([CH2][Pb]([c]2ccccc2)([c]2ccccc2)[c]2ccccc2)cc1
inactive: [1] 100 % of control | [2] 97 % of control | [3] 91 % of control

Cc1c(Cl)ccc(OCC2=NCCN2)c1C
inactive: endpoint: mean survival time, dose: 25.0 mg/kg/injection, schedule: Q04DX002 (ip), vehicle: saline with Tween-80 109 % of control | endpoint: mean survival time, dose: 50.0 mg/kg/injection, schedule: Q04DX002 (ip), vehicle: saline with Tween-80 97 % of control | endpoint: mean survival time, dose: 100.0 mg/kg/injection, schedule: Q04DX002 (ip), vehicle: saline with Tween-80 100 % of control and 102 % of control

O=S(CC(O)(c1ccccc1)c1ccccc1)c1ccccc1 (stereo not given)
inactive: [1] 93 % of control | [2] 97 % of control | [3] 97 % of control

CC1(C)CCSC(/C=C/c2ccccc2)=N1
inactive: endpoint: mean survival time, dose: 100.0 mg/kg/injection, schedule: Q01DX009 (ip), vehicle: other 101 % of control | endpoint: mean survival time, dose: 200.0 mg/kg/injection, schedule: Q01DX009 (ip), vehicle: other 117 % of control | endpoint: mean survival time, dose: 400.0 mg/kg/injection, schedule: Q01DX009 (ip), vehicle: other 109 % of control

OCCN=c1c2ccccc2n(O)c2c1ccc1ccccc12
inactive: endpoint: mean survival time, dose: 50.0 mg/kg/injection, schedule: Q01DX009 (ip), vehicle: saline with Tween-80 104 % of control | [4] 112 % of control | [5] 108 % of control

O=C(C1CO1)C(Cl)(Cl)Cl (stereo not given)
inactive: endpoint: median survival time, dose: 12.0 mg/kg/injection, schedule: Q01DX009 (ip), vehicle: saline 111 % of control | endpoint: median survival time, dose: 25.0 mg/kg/injection, schedule: Q01DX009 (ip), vehicle: saline 108 % of control | endpoint: median survival time, dose: 50.0 mg/kg/injection, schedule: Q01DX009 (ip), vehicle: saline 117 % of control

O=C(O)c1cccc(Cl)n1
inactive: [4] 97 % of control | [5] 97 % of control | [6] 88 % of control

CCOC(=O)C(C)C(O)(c1ccccc1)c1ccccc1 (stereo not given)
inactive: endpoint: mean survival time, dose: 100.0 mg/kg/injection, schedule: Q04DX003 (ip), vehicle: Klucel (hydroxypropylcellulose) (HPC) 95 % of control | endpoint: mean survival time, dose: 200.0 mg/kg/injection, schedule: Q04DX003 (ip), vehicle: Klucel (hydroxypropylcellulose) (HPC) 101 % of control | endpoint: mean survival time, dose: 400.0 mg/kg/injection, schedule: Q04DX003 (ip), vehicle: Klucel (hydroxypropylcellulose) (HPC) 95 % of control

O=C1CC(C(=O)O)C2(CCCCCC2)O1 (stereo not given)
inactive: endpoint: median survival time, dose: 12.5 mg/kg/injection, schedule: Q04DX003 (ip), vehicle: saline with Tween-80 90 % of control | endpoint: median survival time, dose: 25.0 mg/kg/injection, schedule: Q04DX003 (ip), vehicle: saline with Tween-80 90 % of control | endpoint: median survival time, dose: 50.0 mg/kg/injection, schedule: Q04DX003 (ip), vehicle: saline with Tween-80 100 % of control

COc1cc2c(cc1OC)C1CCN3C(=O)CCC3N1CC2 (stereo not given)
inactive: [1] 102 % of control | [2] 102 % of control | [3] 108 % of control

COc1ccc2c(c1)CCC1=C2CCC2(C)C(=O)NC(=O)N12 (stereo not given)
inactive: [1] 98 % of control | [2] 96 % of control | [3] 98 % of control

CN1CN(C)C(=O)S(=O)(=O)C1
inactive: [4] 105 % of control | [1] 92 % of control | [5] 103 % of control | [2] 93 % of control | [6] 107 % of control | [3] 98 % of control

Nc1nc2cc[nH]c2c(=O)[nH]1
inactive: endpoint: median survival time, dose: 50.0 mg/kg/injection, schedule: Q01DX005 (ip), vehicle: saline with Tween-80 94 % of control | endpoint: median survival time, dose: 100.0 mg/kg/injection, schedule: Q01DX005 (ip), vehicle: saline with Tween-80 97 % of control | endpoint: median survival time, dose: 200.0 mg/kg/injection, schedule: Q01DX005 (ip), vehicle: saline with Tween-80 92 % of control

CN(Cc1ccc(Cl)cc1)N=Nc1ccc(C#N)cc1
inactive: [4] 98 % of control | [5] 107 % of control | [6] 93 % of control
